Experimental data taken from US6355799B1, “Substituted benzene compounds, process for their preparation, and herbicidal and defoliant compositions containing them” (ISK Americas Incorporated, priority 1997, dated 2002).

Experiments:
Format in all cases: in vivo
[1] = test system: redroot pigweed (Amaranthus retroflexus, AMARE); assay: Pre-emerge test, greenhouse herbicide activity screening; details: pre-emerge, 14 days after application, scale 0-100
Procedure, shortened: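 Sandy loam pots; pre-emerge: sown 1 d pre-spray, surface-watered after, then bottom-watered. Post-emerge: sown 8–21 d before, 2–3 leaf stage, + 0.25% v/v NIS, bottom-watered. Acetone, 187 l/ha track spray, 15–1000 g ai/ha. 0–100 injury score, day 14.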

[2] = test system: barnyardgrass (Echinochloa crus-galli, ECHCG); assay: as above; details: pre-emerge, 14 days after application, scale 0-100
Description: (§1) A standard greenhouse herbicide activity screening system was used to evaluate the herbicidal efficacy and crop safety of these test compounds. Seven broadleaf weed species including redroot pigweed (Amaranthus retroflexus, AMARE, velvetleaf (Abutilon theophrasti, ABUTH), sicklepod (Cassia obtusifolia, CASOB), ivyleaf morningglory (Ipomoea hederacea, IPOHE), lambsquarters (Chenopodium album, CHEAL), common ragweed (Ambrosia artemisizfolia L., AMBEL), and cocklebur (Xanthium strumarium, XANST) were used as test species. Four grass weed species including green foxtail (Setaria viridis, SETVI), barnyardgrass (Echinochloa crus-galli, ECHCG), johnsongrass (Sorghum halepense, SORHA), and large crabgrass (Digitaria sanguinalis, DIGSA) were also used. In addition, three crop species, field corn (Zea mays L., var. Dekalb 535, CORN), soybean (Glycine max L., var. Pella 86, SOY), and is upland rice (Oryza sp., var. Tebonnet, RICE) were included.
(§2) All plants were grown in 10 cm square plastic pots which were filled with a sandy loam soil mix. For pre-emerge tests, seeds were planted one day prior to application of the test compounds. For post-emerge tests, seeds were planted 8-21 days prior to the test to allow emergence and good foliage development prior to application of the test substances. At the time of the post-emerge application, plants of all species were usually at the 2-3 leaf stage of development.
(§3) All test compounds Were dissolved in acetone and applied to the test units in a volume of 187 l /ha. Test materials were applied at rates ranging from 15 g ai/ha to 1000 g ai/ha using a track sprayer equipped with a TJ8001E even flow flat fan spray nozzle. Plants were arranged on a shelf so that the top of the canopy (post-emerge) or top of the soil surface (pre-emerge) was 40-45 cm below the nozzle. Pressurized air was used to force the test solution through the nozzle as it was mechanically advanced (via electrically driven chain drive) over the top of all test plants/pots. This application simulates a typical commercial field herbicide application.
(§4) In the post-emerge test, a commercial non-ionic surfactant was also included (0.25% v/v) to enhance wetting of the leaf surfaces of target plants. Immediately after application, test units of the pre-emerge applications were watered at the soil surface to incorporate the test materials. Subsequently, these test units were bottom-watered. Post-emerge test units were always bottom-watered.
(§5) At 14 days after application of the test materials, phytotoxicity ratings were recorded. A rating scale of 0-100 was used as previously described in Research Methods in Weed Science, 2nd edition, B. Truelove, Ed., Southern Weed Science Society, Auburn University, Auburn, Ala. 1977. Briefly, “0” corresponds to no damage and “100” corresponds to complete death of all plants in the test unit. This scale was used both to determine efficacy against weed species and damage to crop species. Herbicide activity data for various compounds of this invention, which are shown by compound No. in Tables 1-8, are shown in Tables 11 and 12.

[3] = test system: green foxtail (Setaria viridis, SETVI); assay: as above; details: pre-emerge, 14 days after application, scale 0-100
Description: as §1, §2, §3, §4, §5

[4] = test system: ivyleaf morningglory (Ipomoea hederacea, IPOHE); assay: as above; details: pre-emerge, 14 days after application, scale 0-100
Description: as §1, §2, §3, §4, §5

[5] = test system: lambsquarters (Chenopodium album, CHEAL); assay: as above; details: pre-emerge, 14 days after application, scale 0-100
Description: as §1, §2, §3, §4, §5

[6] = test system: large crabgrass (Digitaria sanguinalis, DIGSA); assay: as above; details: pre-emerge, 14 days after application, scale 0-100
Description: as §1, §2, §3, §4, §5

[7] = test system: sicklepod (Cassia obtusifolia, CASOB); assay: as above; details: pre-emerge, 14 days after application, scale 0-100
Description: as §1, §2, §3, §4, §5

[8] = test system: velvetleaf (Abutilon theophrasti, ABUTH); assay: as above; details: pre-emerge, 14 days after application, scale 0-100
Description: as §1, §2, §3, §4, §5

[9] = test system: field corn (Zea mays L., var. Dekalb 535, CORN); assay: Pre-emerge test, crop safety; details: pre-emerge, 14 days after application, scale 0-100
Procedure, shortened: (§6)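 Plants grown in 10 cm pots of sandy loam mix received acetone-dissolved compounds through a moving flat-fan nozzle. Doses ranged from 15 to 1000 g ai/ha. Pre-emerge pots were seeded one day earlier, post-emerge pots 8–21 days earlier. Fourteen days on, each pot was graded 0–100 for damage.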

[10] = test system: upland rice (Oryza sp., var. Tebonnet, RICE); assay: Pre-emerge test, crop safety; details: pre-emerge, 14 days after application, scale 0-100
Procedure, shortened: as §6

[11] = test system: barnyardgrass (Echinochloa crus-galli, ECHCG); assay: Post-emerge test, greenhouse herbicide activity screening; details: post-emerge, 14 days after application, rating scale 0-100
Description: as §1, §2, §3, §4, §5

[12] = test system: green foxtail (Setaria viridis, SETVI); assay: as above; details: post-emerge, 14 days after application, rating scale 0-100
Description: as §1, §2, §3, §4, §5

[13] = test system: ivyleaf morningglory (Ipomoea hederacea, IPOHE); assay: as above; details: post-emerge, 14 days after application, rating scale 0-100
Description: as §1, §2, §3, §4, §5

[14] = test system: lambsquarters (Chenopodium album, CHEAL); assay: as above; details: post-emerge, 14 days after application, rating scale 0-100
Description: as §1, §2, §3, §4, §5

[15] = test system: large crabgrass (Digitaria sanguinalis, DIGSA); assay: as above; details: post-emerge, 14 days after application, rating scale 0-100
Description: as §1, §2, §3, §4, §5

[16] = test system: redroot pigweed (Amaranthus retroflexus, AMARE); assay: as above; details: post-emerge, 14 days after application, rating scale 0-100
Description: as §1, §2, §3, §4, §5

[17] = test system: sicklepod (Cassia obtusifolia, CASOB); assay: as above; details: post-emerge, 14 days after application, rating scale 0-100
Description: as §1, §2, §3, §4, §5

[18] = test system: velvetleaf (Abutilon theophrasti, ABUTH); assay: as above; details: post-emerge, 14 days after application, rating scale 0-100
Description: as §1, §2, §3, §4, §5

[19] = test system: field corn (Zea mays L., var. Dekalb 535, CORN); assay: Post-emerge test, crop safety; details: post-emerge, 14 days after application, rating scale 0-100
Procedure, shortened: (§7)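 Visual ratings on a 0-100 scale (0 no damage, 100 all plants dead) were taken at 14 days after treatment. Rates of 15-1000 g ai/ha in acetone, 187 l/ha, were sprayed onto soil one day after planting (pre-emerge) or onto 2-3 leaf plants with 0.25% v/v surfactant (post-emerge).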

[20] = test system: upland rice (Oryza sp., var. Tebonnet, RICE); assay: Post-emerge test, crop safety; details: post-emerge, 14 days after application, rating scale 0-100
Procedure, shortened: as §7

SMILES | phytotoxicity rating AMARE ([1]; 63 g ai/ha) | phytotoxicity rating AMARE ([1]; 250 g ai/ha) | phytotoxicity rating ECHCG ([2]; 63 g ai/ha) | phytotoxicity rating ECHCG ([2]; 250 g ai/ha) | phytotoxicity rating SETVI ([3]; 63 g ai/ha) | phytotoxicity rating SETVI ([3]; 250 g ai/ha) | phytotoxicity rating IPOHE ([4]; 63 g ai/ha) | phytotoxicity rating IPOHE ([4]; 250 g ai/ha) | phytotoxicity rating CHEAL ([5]; 63 g ai/ha) | phytotoxicity rating CHEAL ([5]; 250 g ai/ha) | phytotoxicity rating DIGSA ([6]; 63 g ai/ha) | phytotoxicity rating DIGSA ([6]; 250 g ai/ha) | phytotoxicity rating CASOB ([7]; 63 g ai/ha) | phytotoxicity rating CASOB ([7]; 250 g ai/ha) | phytotoxicity rating ABUTH ([8]; 63 g ai/ha) | phytotoxicity rating ABUTH ([8]; 250 g ai/ha) | phytotoxicity rating CORN (crop damage) ([9]; 63 g ai/ha) | phytotoxicity rating CORN (crop damage) ([9]; 250 g ai/ha) | phytotoxicity rating RICE (crop damage) ([10]; 63 g ai/ha) | phytotoxicity rating RICE (crop damage) ([10]; 250 g ai/ha) | further results
C=Cc1ccc(C(=O)N(C(=O)c2ccc(C=C)cc2)c2c(OC)c(Br)cc(F)c2-n2c(=O)cc(C(F)(F)F)n(C)c2=O)cc1 [2-183] | 0 | 30 | 0 | 0 | 0 | 0 | 0 | 0 | 0 | 40 | 0 | 0 | 0 | 0 | 0 | 10 | 0 | 0 | 0 | 0 | ECHCG phytotoxicity rating ([11]; 63 g ai/ha): 0; ECHCG phytotoxicity rating ([11]; 250 g ai/ha): 0; SETVI phytotoxicity rating ([12]; 63 g ai/ha): 0; SETVI phytotoxicity rating ([12]; 250 g ai/ha): 0; IPOHE phytotoxicity rating ([13]; 63 g ai/ha): 0; IPOHE phytotoxicity rating ([13]; 250 g ai/ha): 40; CHEAL phytotoxicity rating ([14]; 63 g ai/ha): 0; CHEAL phytotoxicity rating ([14]; 250 g ai/ha): 80; DIGSA phytotoxicity rating ([15]; 63 g ai/ha): 0; DIGSA phytotoxicity rating ([15]; 250 g ai/ha): 0; AMARE phytotoxicity rating ([16]; 63 g ai/ha): 0; AMARE phytotoxicity rating ([16]; 250 g ai/ha): 10; CASOB phytotoxicity rating ([17]; 63 g ai/ha): 0; CASOB phytotoxicity rating ([17]; 250 g ai/ha): 0; ABUTH phytotoxicity rating ([18]; 63 g ai/ha): 0; ABUTH phytotoxicity rating ([18]; 250 g ai/ha): 50; CORN phytotoxicity rating (crop damage) ([19]; 63 g ai/ha): 0; CORN phytotoxicity rating (crop damage) ([19]; 250 g ai/ha): 0; RICE phytotoxicity rating (crop damage) ([20]; 63 g ai/ha): 0; RICE phytotoxicity rating (crop damage) ([20]; 250 g ai/ha): 0
COc1c(Cl)cc(F)c(-n2c(=O)cc(C(F)(F)F)n(N)c2=O)c1NC(=O)c1ccc2ccccc2c1 [2-184] | 100 | 100 | 30 | 80 | 50 | 100 | 50 | 100 | 100 | 100 | 60 | 100 | 50 | 75 | 100 | 100 | 0 | 30 | 30 | 60 | ECHCG phytotoxicity rating ([11]; 63 g ai/ha): 40; ECHCG phytotoxicity rating ([11]; 250 g ai/ha): 50; SETVI phytotoxicity rating ([12]; 63 g ai/ha): 60; SETVI phytotoxicity rating ([12]; 250 g ai/ha): 80; IPOHE phytotoxicity rating ([13]; 63 g ai/ha): 100; IPOHE phytotoxicity rating ([13]; 250 g ai/ha): 100; CHEAL phytotoxicity rating ([14]; 63 g ai/ha): 100; CHEAL phytotoxicity rating ([14]; 250 g ai/ha): 100; DIGSA phytotoxicity rating ([15]; 63 g ai/ha): 20; DIGSA phytotoxicity rating ([15]; 250 g ai/ha): 90; AMARE phytotoxicity rating ([16]; 63 g ai/ha): 100; AMARE phytotoxicity rating ([16]; 250 g ai/ha): 100; CASOB phytotoxicity rating ([17]; 63 g ai/ha): 100; CASOB phytotoxicity rating ([17]; 250 g ai/ha): 100; ABUTH phytotoxicity rating ([18]; 63 g ai/ha): 100; ABUTH phytotoxicity rating ([18]; 250 g ai/ha): 100; CORN phytotoxicity rating (crop damage) ([19]; 63 g ai/ha): 10; CORN phytotoxicity rating (crop damage) ([19]; 250 g ai/ha): 75; RICE phytotoxicity rating (crop damage) ([20]; 63 g ai/ha): 40; RICE phytotoxicity rating (crop damage) ([20]; 250 g ai/ha): 65
COc1c(Cl)cc(F)c(-n2c(=O)cc(C(F)(F)F)n(N)c2=O)c1NC(=O)COCc1ccccc1 [2-187] | 100 | 100 | 20 | 60 | 50 | 100 | 75 | 100 | 100 | 100 | 90 | 100 | 60 | 100 | 100 | 100 | 0 | 90 | 40 | 90 | ECHCG phytotoxicity rating ([11]; 63 g ai/ha): 20; ECHCG phytotoxicity rating ([11]; 250 g ai/ha): 40; SETVI phytotoxicity rating ([12]; 63 g ai/ha): 40; SETVI phytotoxicity rating ([12]; 250 g ai/ha): 60; IPOHE phytotoxicity rating ([13]; 63 g ai/ha): 100; IPOHE phytotoxicity rating ([13]; 250 g ai/ha): 100; CHEAL phytotoxicity rating ([14]; 63 g ai/ha): 100; CHEAL phytotoxicity rating ([14]; 250 g ai/ha): 100; DIGSA phytotoxicity rating ([15]; 63 g ai/ha): 10; DIGSA phytotoxicity rating ([15]; 250 g ai/ha): 40; AMARE phytotoxicity rating ([16]; 63 g ai/ha): 99; AMARE phytotoxicity rating ([16]; 250 g ai/ha): 100; CASOB phytotoxicity rating ([17]; 63 g ai/ha): 70; CASOB phytotoxicity rating ([17]; 250 g ai/ha): 100; ABUTH phytotoxicity rating ([18]; 63 g ai/ha): 100; ABUTH phytotoxicity rating ([18]; 250 g ai/ha): 100; CORN phytotoxicity rating (crop damage) ([19]; 63 g ai/ha): 15; CORN phytotoxicity rating (crop damage) ([19]; 250 g ai/ha): 75; RICE phytotoxicity rating (crop damage) ([20]; 63 g ai/ha): 50; RICE phytotoxicity rating (crop damage) ([20]; 250 g ai/ha): 90
